Entries after “also recorded” stand apart in the source; their conditions may differ.
Experiments:
[1] = tested on: Human breast cancer cells MDA-MB-231; assay: Viability by trypan blue exclusion test after cell labeling; assay type: cell-based; details: for Viability (%) (±SEM): 83 μM incubation, MDA-MB-231
Description: (§1) Human breast cancer cells MDA-MB-231 were grown at 37° C. with 5% CO2 in 1640-RPMI medium supplemented with 10% fetal bovine serum and 0.5% penicillin streptomycin. Contrast agents were quantified for manganese content by flame AAS prior to cell labeling. MnTCP was dissolved in ultrapure water and MnTriAMP was dissolved in DMSO to give 17 mM stock solutions. The stock solutions were added to the medium with the cells resulting in 83 μM incubation of 2-MnTriAMP or 1-MnTCP for 2 hours. The medium was removed and the cells were washed with fresh medium 5× and then were harvested by washing with PBS followed by addition of 0.05% trypsin EDTA to detach the cells. Viability was assessed directly after labeling with trypan blue exclusion test and observation of cell morphology by phase microscopy.

[2] = tested on: MDA-MB-231 breast cancer cell pellets; assay: MRI T1 and T2 time measurements of labeled cell pellets; assay type: cell-based, Human; details: MDA-MB-231 cell pellets after 83 μM incubation for 2 hours
Description: as §1
For MRI, cell pellets were formed by centrifugation at 440 g for 10 minutes. Subsequent MR was done with a T1-weighted 2D spin-echo image: TR=100 ms, TE=14.163 ms, 3 mm slice thickness, 0.5×0.5 mm in-plane resolution (FIG. 1).

[3] = tested on: Human breast cancer cells MDA-MB-231; assay: Intracellular contrast agent concentration by GFAAS of cell digests; assay type: cell-based; details: for Mn / Mn content per cell relative to control: GFAAS of cell digests; for Mn: 83 μM incubation for 2 hours; for Mn content per cell relative to control: control = 1
Description: as §1
The intracellular contrast agent concentration was determined after cell labeling by centrifugation of a known number of cells followed by removal of the supernatant and digestion of the cells by addition of 1 M nitric acid (0.5 ml) and 30 min of heating at 70° C. Then 3 ml of ultrapure water was added to the digested cells, the mixture was filtered and then quantified by graphite furnace atomic absorption spectroscopy (GFAAS) shown in Table 3.

[4] = 0.47 T (20 MHz for 1H Larmor frequency), 37° C.; cited from earlier work

In the case of `O=C(O)c1c2nc(c(C(=O)O)c3ccc([n-]3)c(C(=O)O)c3nc(c(C(=O)O)c4ccc1[n-]4)C=C3)C=C2.[Cl-].[Mn+3]` [1-MnTCP, [5,10,15,20-tetrakis(carboxy)porphyrinato]manganese(III) chloride], the “Viability (%) (±SEM)” value ([1]; 0 hours after 2 h treatment) is reported as 98 ± 1%, the “Viability (%) (±SEM)” value ([1]; 3 days after 2 h treatment) is reported as 80 ± 6% and the T1 [2] is reported as 1072.1 ± 28.0 ms. For the same compound, the T2 [2] was 108.1 ± 9.3 ms, the Mn [3] was 1.90E−13 mM/cell and the “Mn content per cell relative to control” value [3] was 33.22.
In the case of MnTPPS, the relaxivity [4] is given as about 12 mM⁻¹ s⁻¹.
With “[5-carboxy-10,15,20-tris(acetoxymethylcarboxy)porphyrinato]manganese(III) [2-MnTriAMP]” the “Viability (%) (±SEM)” value ([1]; 0 hours after 2 h treatment) was 97 ± 2%, the “Viability (%) (±SEM)” value ([1]; 3 days after 2 h treatment) was 87 ± 6% and the “toxicity / cell viability after labeling (in words)” value ([1]; MDA-MB-231 after labeling) was “without affecting the cell viability”. It also gave a T1 [2] of 215.4 ± 12.1 ms, a T2 [2] of 66.7 ± 4.4 ms and a Mn [3] of 6.05E−13 mM/cell. The “Mn content per cell relative to control” value [3] was 105.83 and the “cellular uptake (in words)” value ([3]; MDA-MB-231, compared to 1-MnTCP, from relaxation times and GFAAS data) was “significant uptake; also recorded: sufficient cellular uptake and retention”.
